In ChEMBL document CHEMBL4000183, “Phenylpropanoids from Juglans mandshurica exhibit cytotoxicities on liver cancer cell lines through apoptosis induction” (Bioorg Med Chem Lett, 2017):
The source made the active and inactive calls. The rule behind the calls is not given here.

Tests used:
[1] = system: HepG2; experiment: Cytotoxic activity against human HepG2 cells assessed as growth inhibition after 48 hrs by MTT assay; format: functional, cell-based
[2] = system: Hep 3B2; experiment: Cytotoxic activity against human Hep3B cells assessed as growth inhibition after 48 hrs by MTT assay; format: functional, cell-based
[3] = system: HepG2; experiment: Induction of apoptosis in human HepG2 cells assessed as increase in cleaved-caspase 9 level at 60 uM after 48 hrs by Western blot analysis; format: functional, cell-based
[4] = system: HepG2; experiment: Induction of apoptosis in human HepG2 cells assessed as increase in cleaved-caspase 7 level at 60 uM after 48 hrs by Western blot analysis; format: functional, cell-based
[5] = system: HepG2; experiment: Induction of apoptosis in human HepG2 cells assessed as decrease in PARP level at 60 uM after 48 hrs by Western blot analysis; format: functional, cell-based
[6] = system: HepG2; experiment: Induction of apoptosis in human HepG2 cells assessed as decrease in pro-caspase 9 level at 60 uM after 48 hrs by Western blot analysis; format: functional, cell-based
[7] = system: HepG2; experiment: Induction of apoptosis in human HepG2 cells assessed as decrease in pro-caspase 7 level at 60 uM after 48 hrs by Western blot analysis; format: functional, cell-based
[8] = system: HepG2; experiment: Induction of apoptosis in human HepG2 cells assessed as decrease in Bcl-2 level at 60 uM after 48 hrs by Western blot analysis; format: functional, cell-based
[9] = system: HepG2; experiment: Induction of apoptosis in human HepG2 cells assessed as increase in Bax level at 60 uM after 48 hrs by Western blot analysis; format: functional, cell-based
[10] = system: HepG2; experiment: Cytotoxic activity against human HepG2 cells assessed as growth inhibition at 100 uM after 48 hrs by MTT assay; format: functional; conditions: HepG2, 48 h, read-out: GI
[11] = system: HepG2; experiment: Cytotoxic activity against human HepG2 cells assessed as growth inhibition at 50 uM after 48 hrs by MTT assay; format: functional; conditions: HepG2, 48 h, read-out: GI
[12] = system: HepG2; experiment: Cytotoxic activity against human HepG2 cells assessed as growth inhibition at 25 uM after 48 hrs by MTT assay; format: functional; conditions: HepG2, 48 h, read-out: GI
[13] = system: HepG2; experiment: Cytotoxic activity against human HepG2 cells assessed as growth inhibition at 12.5 uM after 48 hrs by MTT assay; format: functional; conditions: HepG2, 48 h, read-out: GI
[14] = system: HepG2; experiment: Cytotoxic activity against human HepG2 cells assessed as growth inhibition at 6.25 uM after 48 hrs by MTT assay; format: functional; conditions: HepG2, 48 h, read-out: GI
[15] = system: Hep 3B2; experiment: Cytotoxic activity against human Hep3B cells assessed as growth inhibition at 100 uM after 48 hrs by MTT assay; format: functional; conditions: read-out: GI
[16] = system: Hep 3B2; experiment: Cytotoxic activity against human Hep3B cells assessed as growth inhibition at 50 uM after 48 hrs by MTT assay; format: functional; conditions: read-out: GI
[17] = system: Hep 3B2; experiment: Cytotoxic activity against human Hep3B cells assessed as growth inhibition at 25 uM after 48 hrs by MTT assay; format: functional; conditions: read-out: GI
[18] = system: Hep 3B2; experiment: Cytotoxic activity against human Hep3B cells assessed as growth inhibition at 12.5 uM after 48 hrs by MTT assay; format: functional; conditions: read-out: GI
[19] = system: Hep 3B2; experiment: Cytotoxic activity against human Hep3B cells assessed as growth inhibition at 6.25 uM after 48 hrs by MTT assay; format: functional; conditions: read-out: GI
[20] = system: HepG2; experiment: Induction of apoptosis in human HepG2 cells assessed as formation of apoptotic bodies at 60 uM after 48 hrs by AO staining-based phase contrast microscopic analysis; format: functional, cell-based
[21] = system: HepG2; experiment: Induction of apoptosis in human HepG2 cells assessed as chromatin condensation at 60 uM after 48 hrs by AO staining-based phase contrast microscopic analysis; format: functional, cell-based
[22] = system: HepG2; experiment: Induction of apoptosis in human HepG2 cells assessed as nuclear fragmentation at 60 uM after 48 hrs by AO staining-based phase contrast microscopic analysis; format: functional, cell-based
[23] = system: HepG2; experiment: Induction of apoptosis in human HepG2 cells assessed as increase in cleaved PARP level at 60 uM after 48 hrs by Western blot analysis; format: functional, cell-based
[24] = system: Hep 3B2; experiment: Induction of apoptosis in human Hep3B cells assessed as cell shrinkage at 50 uM after 48 hrs by AO staining-based phase contrast microscopic analysis; format: functional
[25] = system: Hep 3B2; experiment: Induction of apoptosis in human Hep3B cells assessed as chromatin condensation at 50 uM after 48 hrs by AO staining-based phase contrast microscopic analysis; format: functional, cell-based
[26] = system: Hep 3B2; experiment: Induction of apoptosis in human Hep3B cells assessed as nuclear fragmentation at 50 uM after 48 hrs by AO staining-based phase contrast microscopic analysis; format: functional, cell-based
[27] = system: Hep 3B2; experiment: Induction of apoptosis in human Hep3B cells assessed as decrease in Bcl-2 level at 50 uM after 48 hrs by Western blot analysis; format: functional, cell-based
[28] = system: Hep 3B2; experiment: Induction of apoptosis in human Hep3B cells assessed as increase in Bax level at 50 uM after 48 hrs by Western blot analysis; format: functional, cell-based
[29] = system: Hep 3B2; experiment: Induction of apoptosis in human Hep3B cells assessed as decrease in pro-caspase 7 level at 50 uM after 48 hrs by Western blot analysis; format: functional, cell-based
[30] = system: Hep 3B2; experiment: Induction of apoptosis in human Hep3B cells assessed as decrease in pro-caspase 9 level at 50 uM after 48 hrs by Western blot analysis; format: functional, cell-based
[31] = system: Hep 3B2; experiment: Induction of apoptosis in human Hep3B cells assessed as decrease in PARP level at 50 uM after 48 hrs by Western blot analysis; format: functional, cell-based
[32] = system: Hep 3B2; experiment: Induction of apoptosis in human Hep3B cells assessed as increase in cleaved-caspase 7 level at 50 uM after 48 hrs by Western blot analysis; format: functional, cell-based
[33] = system: Hep 3B2; experiment: Induction of apoptosis in human Hep3B cells assessed as increase in cleaved-caspase 9 level at 50 uM after 48 hrs by Western blot analysis; format: functional, cell-based
[34] = system: Hep 3B2; experiment: Induction of apoptosis in human Hep3B cells assessed as increase in cleaved PARP level at 50 uM after 48 hrs by Western blot analysis; format: functional, cell-based

Compound: CC(/C=C\Oc1ccc(CCCO)cc1)CO (single isomer, unassigned; (+))
- growth inhibition (GI) [1]: 13.76%
- growth inhibition (GI) [2]: 69.59%

Compound: CC(/C=C\Oc1ccc(/C=C/CO)cc1)CO (centres undefined)
- growth inhibition (GI) [1]: 7.81%
- growth inhibition (GI) [2]: -15.72%

Compound: COC(=O)c1ccc(OCCC(C)CO)cc1 (centres undefined)
- growth inhibition (GI) [1]: -11.27%
- growth inhibition (GI) [2]: 19.85%

Compound: C/C(=C\COc1ccc(/C=C/C=O)cc1)CO
- Activity [3]: Active
- Activity [4]: Active
- Activity [5]: Active
- Activity [6]: Active
- Activity [7]: Active
- Activity [8]: Active
- Activity [9]: Active
- growth inhibition (GI) [1]: 87.79%
- IC50 ([1]; Homo sapiens, HepG2, 48 h): 63.7 µM
- growth inhibition (GI) [2]: 93.78%
- IC50 ([2]; Homo sapiens, Hep3B, 48 h): 46.5 µM
- inhibition of growth at 100 µM [10]: 69.2%
- inhibition of growth at 50 µM [11]: 52%
- inhibition of growth at 25 µM [12]: 7.01%
- inhibition of growth at 12.5 µM [13]: 12.2%
- inhibition of growth at 6.25 µM [14]: -9.7%
- inhibition of growth at 100 µM [15]: 91.5%
- inhibition of growth at 50 µM [16]: 77.7%
- inhibition of growth at 25 µM [17]: 11.6%
- inhibition of growth at 12.5 µM [18]: 9.1%
- inhibition of growth at 6.25 µM [19]: -4.83%
- Activity [20]: Active
- Activity [21]: Active
- Activity [22]: Active
- Activity [23]: Active
- Activity [24]: Active
- Activity [25]: Active
- Activity [26]: Active
- Activity [27]: Active
- Activity [28]: Active
- Activity [29]: Active
- Activity [30]: Active
- Activity [31]: Active
- Activity [32]: Active
- Activity [33]: Active
- Activity [34]: Active

Compound: CC(CO)CCOc1ccc(C=O)cc1 (centres undefined)
- growth inhibition (GI) [1]: -1.05%
- growth inhibition (GI) [2]: 27.41%
